Measured values taken from US5563176A (priority 1994, dated 1996).
Read-outs that look alike come from different tables or passages of the source.

What was measured:
HL-60 ADR (gp150+) cells = assay: sensitivity of mdr lines, HL-60 ADR; type: cell-based; conditions: Homo sapiens, HL60/ADR
tolerability in mice = conditions: for MTD at 672 h: mouse, in vivo
KB C-1 (gp170+) cells = assay: sensitivity of mdr lines, KB C-1; type: cell-based; conditions: KBC-1
MCF-7, breast = assay: cells; type: cell-based, human; conditions: Homo sapiens, MCF7, 2 h
8392 cells = assay: cells; type: cell-based; conditions: 48 h, read-out: 48 hour IC50
HL60 cells (myeloid) = assay: cells; type: cell-based, human; conditions: Homo sapiens, HL-60, 2 h
[1] = kinetics of the reaction with dilute HCl; type: physicochemical; conditions: dehydroilludin M
Source text: Consistent with the above hypothesis are the results of the kinetics of the reaction of illudin M and dehydroilludin M with dilute HCl. […] In the reaction with dehydroilludin M, no intermediate could be detected by NMR spectroscopy. Presumably it formed too slowly and is too short-lived to be detected.

[2] = system: MDA-231 3-1 (gp170+) cells; assay: sensitivity of mdr lines, MDA-231 3-1; type: cell-based; conditions: Homo sapiens, MDA-MB-231

## CC1=C2C(=O)C(C)(C)C=C2C(=O)[C@](C)(O)C12CC2 [Dehydroilludin M]
HL-60 ADR (gp150+) cells
  IC50: 191 ± 44 nM
Tolerability in mice; 60,000 μg/kg IP twice a week
  toxicity to mice: nontoxic
Tolerability in mice; ip
  MTD at 672 h: 60 mg/kg
Tolerability in mice; iv
  MTD at 672 h: 1 mg/kg
KB C-1 (gp170+) cells
  IC50: 80 ± 18 nM
MCF-7, breast
  IC50: 653 ± 65 nM
8392 cells
  IC50: 269 ± 100 nM
HL60 cells (myeloid)
  IC50: 246 ± 19 nM
HL60 cells (myeloid); read-out: Two hour IC50
  IC50: 377 ± 81 nM
[1]
  half-life: 46.1 h
  k, first-order reaction: 2×10^-4 min^1
[2]
  IC50: 58 ± 11 nM
